Results on one substance are retold here after patent publication US6616945B1, “Method for making a pharmaceutical formulation” (Leiras Oy, priority 1997, dated 2003).

The nature of the data set: X-ray diffraction (XRD) study of crystallinity / amorphous content. In kind it is physicochemical. The protocol:
FIG. 1 presents the X-ray diffraction (XRD) patterns of three salbutamol samples.
In FIG. 1, the XRD patterns of the three salbutamol samples, which were each treated differently before analysis is shown as follows:
Also the initial mean particle size had been increased close to the upper acceptable limit.
Samples of some months ago micronized material were suspended in n-heptane and stirred 7 and 16 hours at 70° C., followed by drying.
Specific surface area and the energy for moisture absorption during transfer from 0 to 80% RH were metered: […]

Consider salbutamol sulphate, for which the “change in amount of amorphous matter” value (micronized drug stored 10 hors at 40° C. and 50% RH) is reported as “clear decrease”. Besides, the “crystallinity by XRD” value by setting is: (stirred 7 hours at 50° C. as n-heptane suspension) “slightly less”; (stirred 7 hours at 60° C. as n-heptane suspension) “practically total crystallinity”; (stirred 7 hours at 70° C. as n-heptane suspension) “practically total crystallinity”. In addition, the “amorphous content by XRD” value (untreated micronized sample) was “a detectable amount of the drug was amorphous”.
